Values after ≈ are worked out from the molar mass of the structure shown.
Columns and labels:
[1] = tested on: C. albicans B4; test: microbe, parasite or virus in culture; format: cell-based, Candida albicans; settings: Candida albicans, B4, 48 h
From the text: (§1) The C. albicans CAF2-1 (Genotype/Description: ura3Δ::imm434/URA3[89]) and DSY1050 (Genotype/Description: cdr1Δ::hisG/cdr1Δ::hisG/cdr2Δ::hisG/cdr2Δ::hisG/mdr1Δ::hisG-URA3-hisG/mdr1Δ::hisG[90]) strains used in this study were generous gift from D. Sanglard (Lausanne, Switzerland)[91],[92] whereas C. albicans B3 and Gu4 (Genotype/Description: clinical isolates fluconazole sensitive)[93]), B4 (Genotype/Description: Clinical isolate fluconazole resistant due to the overexpression of MDR1[93]) and Gu5 (Genotype/Description: Clinical isolate fluconazole resistant due to the overexpression of CDR1 and CDR2[93]) were a generous gift from prof. S. Milewski (Gdańsk, Poland)[94] and prof. J. Morschhäuser (Wurzburg, Germany)[93]. All strains were grown at 37 °C on Sabouraud medium (Biomerieux).
(§2) The antifungal activity was determined on the 96-well polystyrene microtiter plates (Sarstedt) according to Clinical and Laboratory Standards Institute M27-A3[95]. […] The compounds were dissolved in DMSO (10 mM) and then serially diluted in RPMI-1640 (ThermoFisher) medium to obtain the final concentration range. Inocula of all strains were prepared as suspensions with turbidity of 0.5 McFarland standard in sterile 0.85% saline and diluted in RPMI-1640. After inoculation, each well contained appr. 5 × 10^2 CFU/mL. The plates were cultivated for 48 h at 37 °C. Optical density was measured at A490nm using a microplate reader ASYS UVM 340 (Biogenet).

[2] = tested on: C. albicans CAF2-1; test: microbe, parasite or virus in culture; format: cell-based, Candida albicans; settings: Candida albicans, CAF21, 48 h
From the text: as §1, §2

[3] = tested on: C. albicans DSY1050; test: microbe, parasite or virus in culture; format: cell-based, Candida albicans; settings: Candida albicans, DSY1050, 48 h
From the text: as §1, §2

[4] = tested on: C. albicans Gu5; test: microbe, parasite or virus in culture; format: cell-based, Candida albicans; settings: Candida albicans, GU5, 48 h
From the text: as §1, §2

[5] = tested on: C. albicans B3; test: microbe, parasite or virus in culture; format: cell-based; settings: Candida albicans, B3, 48 h
From the text: as §1, §2

[6] = tested on: C. albicans Gu4; test: microbe, parasite or virus in culture; format: cell-based; settings: Candida albicans, GU4, 48 h
From the text: as §1, §2

[7] = tested on: C. albicans CAF2-1; test: microbe, parasite or virus in culture; format: cell-based, Candida albicans; settings: Candida albicans, CAF21, read-out: Viability of C. albicans CAF2-1
Method: The synergistic effects of KeOP/KeP with Flc were determined using the M27-A3 method with modifications. Flc and KeOP/KeP stock solutions in DMSO (10 mM) were (alone and simultaneously) diluted in RPMI-1640 medium to obtain final concentrations of^1/8; ^1/4; ^1/2; 1 × MIC50 towards C. albicans CAF2-1 strain in microdilution sterile plates (Sarstedt). Statistical significance analysis was performed using Student’s t-test ([…], unpaired) comparing viability in the presence of corresponding Flc concentrations with/without KeOP/KeP.

[8] = tested on: hASCs (human adipose-derived stromal cells); test: Cytotoxicity IC50, TOX-8 resazurin assay, hASCs, 24 h; format: cell-based
Method: Human Adipose Tissue-derived Stem Cells (hASCs) were isolated from subcutaneous adipose tissue fragments harvested from non-diabetic female donors (age range 33–38, n = 2) during standard surgical procedure of total hip arthroplasty. Immediately after collection of tissue, the samples were placed in sterile tissue-transport medium (Hank’s Balanced Salt Solution (HBSS) supplemented with 1% Penicillin/Streptomycin/Amphotericin B solution (P/S/A). Mesenchymal stromal cell isolation was performed using enzymatic digestion of extracellular matrix with collagenase type I. Before digestion, tissue specimens were washed twice with HBSS and incubated in collagenase type I solution (1 mg/mL) at 37 °C for 40 min. The digest was subsequently centrifuged (1200 × g; 10 minutes; room temperature) and the cell pellet was resuspended in Dulbecco’s modified Eagle’s medium (DMEM) with Nutrient F-12 Ham, 10% of Fetal Bovine Serum (FBS), and 1% of P/S/A, transferred to a culture flask, and kept in culture under optimal conditions (37 °C in a humidified atmosphere of 5% CO2). The medium was refreshed every 2–3 days. At 80–90% confluence, the cells were passaged using trypsin solution (TrypLE Express, Life Technologies, California, USA). At passage 3, hASCs were collected and cellular phenotype was confirmed by the high expression of markers CD44, CD29, CD73, CD105 and low expression of CD45. Moreover, the trilineage differentiation capacity of ASCs was confirmed as previously described.
The IC50 values were determined using in vitro Toxicology TOX-8 Assay Kit (resazurin based) according to the manufacturer’s protocol. For this assay, cells were seeded in a 96-well plate at a density of 5 × 10^3 cells/well. The cells were pre-incubated in drug-free complete medium for 24 h before adding various concentrations of the compounds to be investigated. Stock solutions of the compounds were prepared in DMSO following serial dilutions in DMEM with Nutrient F-12 Ham complete medium. The cells exposure period was 24 h. After that time media were replaced with 10% v/v resazurin dye solution in fresh complete culture medium. Incubation was carried out for 2 h at 37 °C in the CO2 incubator. Reduction of the dye was measured spectrophotometrically at 600 nm and 690 nm reference wavelength (Epoch, Biotek). Absorbance measurements allowed the determination of viable treated cells relative to untreated controls using the inflection point of a dose-response graph. IC50 values were estimated as duplicates of triplicate readings in two independent experiments.

[9] = cited from earlier work

## OC(Cn1cncn1)(Cn1cncn1)c1ccc(F)cc1F [Flc, fluconazole, reference compound]
[1]
  MIC50: 50 µM (≈ 15.3 µg/mL)
[2]
  MIC50: 6.25 µM (≈ 1.91 µg/mL)
[3]
  MIC50: 0.78 µM (≈ 0.239 µg/mL)
[4]
  MIC50: > 200 µM
[5]
  MIC50: 6.25 µM (≈ 1.91 µg/mL)
[6]
  MIC50: 6.25 µM (≈ 1.91 µg/mL)
[7]
  viability at 0.78 µM: 86.9 ± 7.84%
  viability at 1.56 µM: 71.3 ± 13.9%
  viability at 3.13 µM: 73.8 ± 4.35%
  viability at 6.25 µM: 38 ± 8.94%
[8]
  IC50 (cytotoxicity, hASCs viability): not cytotoxic in the tested concentration range
[9]
  fold less active in vitro than Ke: approximately 16 fold
